Reference: patent US20080269241A1, “BICYCLIC AMINOPROPYL TETRAHYDRO-PYRAZOLO-PYRIDINE MODULATORS OF CATHEPSIN S” (priority 2007, published 2008)
pIC50: −log10 of the molar value. Where two headings read alike, the source gives them in different places.

Target: T1, human cathepsin S (CatS) (Homo sapiens, UniProt P25774)
T1 construct: made in house; host or cells: baculovirus system (insect cells)
Test: Recombinant human cathepsin S (CatS) fluorogenic substrate inhibition assay
Format: biochemical
Procedure: Recombinant human cathepsin S (CatS) was expressed in the baculovirus system and purified in one step with a thiopropyl-sepharose column. […] The assay is run in 150 mM sodium acetate pH 5.0 containing 1.5 mM DTT and 150 mM NaCl. […] Measurements are taken every min for 20 min. The rate is calculated from the slope of the increase in fluorescence and the percent inhibition is calculated from this.

[1] = recombinant human CatS, 10 μM Z-Valine-Valine-Arginine-AMC, pH 5.0, average of results obtained, read-out: CatS IC50

T1 sequence (P25774 115-331): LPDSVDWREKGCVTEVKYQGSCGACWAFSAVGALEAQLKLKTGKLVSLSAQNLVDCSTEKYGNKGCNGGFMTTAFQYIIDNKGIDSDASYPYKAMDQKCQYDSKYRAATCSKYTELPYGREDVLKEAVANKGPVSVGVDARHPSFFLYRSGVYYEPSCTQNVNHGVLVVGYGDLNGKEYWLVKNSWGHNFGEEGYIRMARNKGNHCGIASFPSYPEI

Compound	pIC50 [1]	pIC50
CS(=O)(=O)N1CCc2c(c(-c3ccc(C(F)(F)F)c(CNC(=O)CN4CCCCC4)c3)nn2CCCN2CCC(N3CCCC3=O)CC2)C1 [Example 135, N-[5-(5-Methanesulfonyl-1-{3-[4-(2-oxo-pyrrolidin-1-yl)-piperidin-1-yl]-propyl}-4,5,6,7-tetrahydro-1H-pyrazolo[4,3-c]pyridin-3-yl)-2-trifluoromethyl-benzyl]-2-piperidin-1-yl-acetamide]	6.39	–
Cc1csc(C(=O)NCc2cc(-c3nn(CC(O)CN4CCC(N5CCCC5=O)CC4)c4c3CN(S(C)(=O)=O)CC4)ccc2C(F)(F)F)c1Cl (stereo not drawn) [Example 136, 3-Chloro-4-methyl-thiophene-2-carboxylic acid 5-(1-{2-hydroxy-3-[4-(2-oxo-pyrrolidin-1-yl)-piperidin-1-yl]-propyl}-5-methanesulfonyl-4,5,6,7-tetrahydro-1H-pyrazolo[4,3-c]pyridin-3-yl)-2-trifluoromethyl-benzylamide]	6.39	–
Cc1ncsc1C(=O)NCc1cc(-c2nn(CC(O)CN3CCC(N4CCCC4=O)CC3)c3c2CN(S(C)(=O)=O)CC3)ccc1C(F)(F)F (stereo not drawn) [Example 137, 4-Methyl-thiazole-5-carboxylic acid 5-(1-{2-hydroxy-3-[4-(2-oxo-pyrrolidin-1-yl)-piperidin-1-yl]-propyl}-5-methanesulfonyl-4,5,6,7-tetrahydro-1H-pyrazolo[4,3-c]pyridin-3-yl)-2-trifluoromethyl-benzylamide]	6.39	–
CCSC(=O)NCc1cc(-c2nn(CCCN3CCC(N4CCCC4=O)CC3)c3c2CN(S(C)(=O)=O)CC3)ccc1C(F)(F)F [Example 138, [5-(5-Methanesulfonyl-1-{3-[4-(2-oxo-pyrrolidin-1-yl)-piperidin-1-yl]-propyl}-4,5,6,7-tetrahydro-1H-pyrazolo[4,3-c]pyridin-3-yl)-2-trifluoromethyl-benzyl]-thiocarbamic acid S-ethyl ester]	6.37	–
CS(=O)(=O)N1CCc2c(c(-c3ccc(C(F)(F)F)c(CNC(=O)c4ccc5nccnc5c4)c3)nn2CC(O)CN2CCC(N3CCCC3=O)CC2)C1 (stereo not drawn) [Example 139, Quinoxaline-6-carboxylic acid 5-(1-{2-hydroxy-3-[4-(2-oxo-pyrrolidin-1-yl)-piperidin-1-yl]-propyl}-5-methanesulfonyl-4,5,6,7-tetrahydro-1H-pyrazolo[4,3-c]pyridin-3-yl)-2-trifluoromethyl-benzylamide]	6.31	–
CC(=O)NCc1cc(-c2nn(CC(O)CN3CCC(n4c(=O)n(C)c5ccc(N(C)C)nc54)CC3)c3c2CN(S(C)(=O)=O)CC3)ccc1C(F)(F)F (stereo not drawn) [Example 143, N-[5-(1-{3-[4-(5-Dimethylamino-1-methyl-2-oxo-1,2-dihydro-imidazo[4,5-b]pyridin-3-yl)-piperidin-1-yl]-2-hydroxy-propyl}-5-methanesulfonyl-4,5,6,7-tetrahydro-1H-pyrazolo[4,3-c]pyridin-3-yl)-2-trifluoromethyl-benzyl]-acetamide]	7.00	–
CN(C)C(=O)NCc1cc(-c2nn(CC(O)CN3CCC(n4c(=O)n(C)c5ccc(N(C)C)nc54)CC3)c3c2CN(S(C)(=O)=O)CC3)ccc1C(F)(F)F (stereo not drawn) [Example 147, 2-Dimethylamino-N-[5-(1-{3-[4-(5-Dimethylamino-1-methyl-2-oxo-1,2-dihydro-imidazo[4,5-b]pyridin-3-yl)-piperidin-1-yl]-2-hydroxy-propyl}-5-methanesulfonyl-4,5,6,7-tetrahydro-1H-pyrazolo[4,3-c]pyridin-3-yl)-2-trifluoromethyl-benzyl]-1,1-dimethyl-urea]	–	6.85
CN(C)c1ccc2c(n1)n(C1CCN(CC(O)Cn3nc(-c4ccc(C(F)(F)F)c(CNC(=O)CO)c4)c4c3CCN(S(C)(=O)=O)C4)CC1)c(=O)n2C (stereo not drawn) [Example 152, 2-Hydroxy-N-[5-(1-{3-[4-(5-Dimethylamino-1-methyl-2-oxo-1,2-dihydro-imidazo[4,5-b]pyridin-3-yl)-piperidin-1-yl]-2-hydroxy-propyl}-5-methanesulfonyl-4,5,6,7-tetrahydro-1H-pyrazolo[4,3-c]pyridin-3-yl)-2-trifluoromethyl-benzyl]-acetamide]	6.60	–
CS(=O)(=O)N1CCc2c(c(-c3ccc(C(F)(F)F)c(CNC(=O)CN4CCS(=O)(=O)CC4)c3)nn2CCCN2CCC(N3CCCC3=O)CC2)C1 [Example 162, 2-(1,1-Dioxo-1λ^6-thiomorpholin-4-yl)-N-[5-(5-methanesulfonyl-1-{3-[4-(2-oxo-pyrrolidin-1-yl)-piperidin-1-yl]-propyl}-4,5,6,7-tetrahydro-1H-pyrazolo[4,3-c]pyridin-3-yl)-2-trifluoromethyl-benzyl]-acetamide]	6.42	–

Second part, led by results:

pIC50 [1]	Compound	pIC50
5.38	CS(=O)(=O)N1CCc2c(c(-c3ccc(C(F)(F)F)c(CNc4nc5ccccc5[nH]4)c3)nn2CC(O)CN2CCC(N3CCCC3=O)CC2)C1 (stereo not drawn) [Example 175, 1-{1-[3-(3-{3-[(1H-Benzoimidazol-2-ylamino)-methyl]-4-trifluoromethyl-phenyl}-5-methanesulfonyl-4,5,6,7-tetrahydro-pyrazolo[4,3-c]pyridin-1-yl)-2-hydroxy-propyl]-piperidin-4-yl}-pyrrolidin-2-one]	–
5.88	CS(=O)(=O)N1CCc2c(c(-c3ccc(C(F)(F)F)c(Cn4cnnn4)c3)nn2CCCN2CCC(N3CCCC3=O)CC2)C1 [Example 176, 1-(1-{3-[5-Methanesulfonyl-3-(3-tetrazol-1-ylmethyl-4-trifluoromethyl-phenyl)-4,5,6,7-tetrahydro-pyrazolo[4,3-c]pyridin-1-yl]-propyl}-piperidin-4-yl)-pyrrolidin-2-one]	–
5.78	Cc1coc(NCc2cc(-c3nn(CCCN4CCC(N5CCCC5=O)CC4)c4c3CN(S(C)(=O)=O)CC4)ccc2C(F)(F)F)n1 [Example 177, 1-{1-[3-(5-Methanesulfonyl-3-{3-[(4-methyl-oxazol-2-ylamino)-methyl]-4-trifluoromethyl-phenyl}-4,5,6,7-tetrahydro-pyrazolo[4,3-c]pyridin-1-yl)-propyl]-piperidin-4-yl}-pyrrolidin-2-one]	–
5.78	CS(=O)(=O)N1CCc2c(c(-c3ccc(C(F)(F)F)c(CNC=O)c3)nn2CC(O)CN2CCC(N3CCCC3=O)CC2)C1 (stereo not drawn) [Example 178, N-[5-(1-{2-Hydroxy-3-[4-(2-oxo-pyrrolidin-1-yl)-piperidin-1-yl]-propyl}-5-methanesulfonyl-4,5,6,7-tetrahydro-1H-pyrazolo[4,3-c]pyridin-3-yl)-2-trifluoromethyl-benzyl]-formamide]	–
5.20	CS(=O)(=O)N1CCc2c(c(-c3ccc(C(F)(F)F)c(CNCCN4CCCCC4)c3)nn2CC(O)CN2CCC(N3CCCC3=O)CC2)C1 (stereo not drawn) [Example 179, 1-{1-[2-Hydroxy-3-(5-methanesulfonyl-3-{3-[(2-piperidin-1-yl-ethylamino)-methyl]-4-trifluoromethyl-phenyl}-4,5,6,7-tetrahydro-pyrazolo[4,3-c]pyridin-1-yl)-propyl]-piperidin-4-yl}-pyrrolidin-2-one]	–
5.43	CN1CCN(CC(=O)NCc2cc(-c3nn(CCCN4CCC(N5CCCC5=O)CC4)c4c3CN(S(C)(=O)=O)CC4)ccc2C(F)(F)F)CC1 [Example 180, N-[5-(5-Methanesulfonyl-1-{3-[4-(2-oxo-pyrrolidin-1-yl)-piperidin-1-yl]-propyl}-4,5,6,7-tetrahydro-1H-pyrazolo[4,3-c]pyridin-3-yl)-2-trifluoromethyl-benzyl]-2-(4-methyl-piperazin-1-yl)-acetamide]	–
